# Data reported in US20160143910A1, “METHODS OF TREATING CANCER AND PREVENTING CANCER DRUG RESISTANCE” (GENENTECH, INC., priority 2013, published 2016).
# Tests used:
# SW480 cells = experiment: DTP model of CRC cell line SW480 with 5-fluorouracil and SN-38; format: cell-based
# Protocol: A model for resistance to standard-of-care chemotherapy for colorectal cancer (CRC) was developed by treating CRC cell line SW480 with a combination of 5-fluorouracil and the irinotecan active metabolite SN-38 in a ratio of their relative IC50 values (33 μM 5-FU and 6 ηM SN-38) continuously for 16 days, followed by drug withdrawal. The cells progressively die during this treatment period. The remaining DTP cells constitute approximately 8% of the initial cell population and appear large and non-dividing. After drug withdrawal, cells continue to die for several more days, but then re-initiate proliferation and expand to form DTEP colonies by about 2 weeks in the absence of drugs.
# PC9 cells [1] = experiment: Drug tolerant persister (DTP) assay, PC9 with Tarceva (erlotinib); format: cell-based, human; conditions: stained 30 days after
# Source text: […] Viable cells remaining attached on the dish at the end of the third round of relevant drug treatment were considered to be DTPs, and were collected for analysis.
# (§1) The structures of CPI-382 and CPI-383 are provided below.
# A375 = experiment: Cell viability assay (cell titer Glo), A375; format: cell-based; conditions: Homo sapiens, A-375, 96 h; A375, 4 days of incubation, 8 doses
# Protocol: (§2) One goal was to identify a cell line that would be sensitive to vemurafenib and amenable to DTP formation. For this, a set of 18 melanoma cell lines were tested by standard cell viability assay using cell titer Glo readout after 4 days of incubation with 8 different doses of vemurafenib. The results identified 3 melanoma cell lines (A375, Colo829 and HT144) with GI50's below 600 nM. All 3 of these cell lines were b raf mutant. After experiments with all these cell lines, Colo-829 was selected as the preferred cell line for DTP establishment.
# (§3) 1.1 Identifying melanoma cell lines sensitive to Vemurafenib • Day 0: 1000 cells/well were plated in 100 μl total volume in a 96 well flat bottom plate. • Day 1: The cells were treated with vemurafenib. The highest concentration in the assay was 20 μM and was diluted 3 fold down with the lowest concentration being 9 nM. • Day 5: 100 μl of cell titer glo was added to each well and the plates read on Envision. The data was plotted using graphpad prism. 1.2 DTP establishment in melanoma cell lines • Day 0: Cells (4.5×10^6 cells/P150 dishes) were plated, 4 plates/cell line. • Day 2: All the cell lines were 60-80% confluent. […] The cells in these plates were counted and ⅛th the numbers were replated in 2 new P150 dishes. […] The cells were counted and the percentage of cells remaining on the Vemurafenib treated dish vs the control dish were identified. […]
# Colo829 = experiment: Cell viability assay (cell titer Glo), Colo829; format: cell-based; conditions: Homo sapiens, COLO-829, 96 h; Colo829, 4 days of incubation, 8 doses
# Protocol: as §2, §3
# HT144 = experiment: Cell viability assay (cell titer Glo), HT144; format: cell-based; conditions: Homo sapiens, HT-144, 96 h; HT144, 4 days of incubation, 8 doses
# Protocol: as §2, §3
# H3K4me3 [2] = experiment: H3K4me3 MSD ELISA in PC9; format: cell-based, human; conditions: PC9 (NSCLC)
# Protocol: (§4) Cells were rinsed with PBS and MSD Buffer AT (10 mM HEPES, pH 7.9, 5 mM MgCl2, 0.25M sucrose, Benzonase (1:10000), 1% Triton X-100 supplemented with fresh 1× Protease Inhibitor cocktail and 1 mM PMSF/AEBSF) was added. Cells were lysed for 30 minutes and then 10 uL 5M NaCl was added and allowed to lyse on ice for another 15 minutes. Lysates were rinse with 150 uL ice-cold NO Salt NO detergent buffer (20 mM Tris pH 7.5, 1 mM EDTA, 1 mM EGTA, supplemented with fresh 1× Protease Inhibitor cocktail and 1 mM PMSF).
# (§5) MSD plates (Catalog #L15XA-3) were then coated with Capture Antibody Anti-histone (Millipore Catalog # MAB3422) for H3K4me3: 2 ug/mL final concentration and/or plates testing for H3: 1 ug/mL final concentration. MSD plates were then blocked with 5% Blocker A (MSD Catalog #R93AA-2). Lysates to MSD plates were subsequently transferred, sealed and incubated with shaking at RT for 2:30 hours and then incubated with detection antibody in 1% Blocker A in TBST for 30 min (anti-Histone H3 (#4499 from Cell Signaling) at 0.125 ug/mL and/or anti-K4Me3 (#9751 from Cell Signaling) at 1 ug/mL). Sulfo-tag rabbit antibody (MSD Catalog# R32AB-1) in 1% Blocker A in TBST was added and incubated for 1 h at RT. […] 1× Read Buffer (MSD Catalog #R92TD-3) was added and read on MSD SECTOR® Imager 2400. Data was analyzed data using MACRO template provided using samples treated with DMSO as 0% or Min. […]
# H3K4me3 [3] = experiment: H3K4me3 MSD ELISA in SKBR3; format: cell-based; conditions: SKBR3 (breast cancer)
# Protocol: as §4, §5
# H3K4me3 [4] = experiment: H3K4me3 MSD ELISA in H441; format: cell-based; conditions: H441 (NSCLC)
# Protocol: as §4, §5
# H3K4me3 [5] = experiment: H3K4me3 MSD ELISA in H596; format: cell-based; conditions: H596 (lung epithelial adenosquamous carcinoma)
# Protocol: as §4, §5
# PC9 cells [6] = experiment: Cell number with KDM5 antagonist alone, PC9; format: cell-based, human; conditions: after 96 hours in drug, concentrations below 50 uM
# Protocol: (§6) 3×10^4 cells were plated in each well of a 12-well cluster dish. 24 hours after plating, media was removed and replaced with media containing drugs. Fresh media was replaced every 2 days until untreated cells reached confluence. Media was then removed, cells were washed with Phosphate Buffered Saline (PBS), and then fixed for 15 min with 4% formaldehyde in PBS. Cells were then washed with PBS and stained with the fluorescent nucleic acid stain, Syto60 (1 nM in PBS; Molecular Probes) for 15 min. Dye was removed, cell monolayers were washed with PBS, and fluorescence quantitation was carried out at 700 nm with an Odyssey Infrared Imager (Li-Cor Biosciences).
# SKBR3 [7] = experiment: Cell number with KDM5 antagonist alone, SKBR3; format: cell-based; conditions: after 96 hours in drug, concentrations below 25 uM
# Protocol: as §6
# SKBR3 [8] = experiment: Drug tolerant persister (DTP) assay, SKBR3; format: cell-based; conditions: in combination with the recited cancer therapy agent
# Protocol: (§7) Drug-sensitive cells were treated with relevant drug as described herein at concentrations exceeding 100 times the established IC50 values, for three rounds, with each treatment lasting 72 hours. Viable cells remaining attached on the dish at the end of the third round of relevant drug treatment were considered to be DTPs, and were collected for analysis.
# as §1
# HCC1954 = experiment: Drug tolerant persister (DTP) assay, HCC1954; format: cell-based; conditions: HCC1954 (breast cancer); in combination with the recited cancer therapy agent
# Protocol: as §7, §1
# H441 cells = experiment: Drug tolerant persister (DTP) assay, H441; format: cell-based; conditions: in combination with the recited cancer therapy agent
# Protocol: Specifically for carboplatin and paclitaxel DTPs, Cells were plated and grown to 60-70% confluency then treated with Carboplatin (5.38 uM) and Paclitaxel (1.25 uM) for 5 cycles of 24 hours on 48 hours off drug. DTPs were collected and analyzed 1 week after the final dose of chemotherapy.
# as §1
# PC9 cells [9] = experiment: Gamma irradiation of PC9 cells after KDM5 inhibitor pretreatment; format: cell-based, human
# Protocol: For Gamma irradiation the cells were treated for 5 days with inhibitors replated at 500,000 cells with the inhibitor. After cell attachment (approximately 8 hours), the cells were irradiated, and cells were counted 5 days after irradiation.
# [10] = nuc-RED PC9, various concentrations for 5 days prior to 1 uM Tarceva (erlotinib)
compound,measurement,setting,value
Nc1ncn([C@@H]2O[C@H](CO)[C@@H](O)[C@H]2O)c(=O)n1 [5-azacytidine],DTP survival,SW480 cells; 0.2 μM,does not affect DTP survival
O=c1[nH]c(Oc2cnn(Cc3ccccc3)c2)nc2cnccc12 [CPI-382],development of drug tolerant persisters,PC9 cells [1]; [10],capable of reducing the development of drug tolerant persisters
O=c1[nH]c(Oc2cnn(Cc3ccccc3)c2)nc2ncccc12 [CPI-383],development of drug tolerant persisters,PC9 cells [1]; [10],no significant effect
CC(/C=C/C(=O)NO)=C\[C@@H](C)C(=O)c1ccc(N(C)C)cc1 [Trichostatin A],DTP survival,SW480 cells; 20 ηM,does not affect DTP survival
"CCCS(=O)(=O)Nc1ccc(F)c(C(=O)c2c[nH]c3ncc(-c4ccc(Cl)cc4)cc23)c1F [vemurafenib, Vemurafenib]",GI50,A375,< 0.6 µM
same,GI50,Colo829,< 0.6 µM
same,GI50,HT144,< 0.6 µM
CPI-455,H3K4me3,H3K4me3 [2],increase H3K4me3
same,H3K4me3,H3K4me3 [3],increase H3K4me3
same,H3K4me3,H3K4me3 [4],increase H3K4me3
same,H3K4me3,H3K4me3 [5],increase H3K4me3
same,cell number,PC9 cells [6],did not substantially affect cell number
same,cell number,SKBR3 [7],did not substantially affect cell number
same,development of drug tolerant persisters,"PC9 cells [1]; PC9, in combination with cancer therapy agent, 25 uM for 5 days prior to 1uM Tarceva",capable of inhibiting the development of drug tolerant persisters
same,development of drug tolerant persisters,SKBR3 [8],capable of inhibiting the development of drug tolerant persisters
same,development of drug tolerant persisters,HCC1954,capable of inhibiting the development of drug tolerant persisters
same,development of drug tolerant persisters,H441 cells,capable of inhibiting the development of drug tolerant persisters
same,number of cells following γ-irradiation,"PC9 cells [9]; PC9, pretreatment for 5 days, compared to inactive controls",decreases the number of cells following γ-irradiation
same,development of drug tolerant persisters,PC9 cells [9]; in combination with radiation therapy,capable of inhibiting the development of drug tolerant persisters
